Results reported in patent publication US8093262B2 (priority 2005, dated 2012).
Read-outs that look alike come from different tables or passages of the source.

Assays:
mice [1] = details: established antiepileptic drugs; cited from earlier work
mice [2] = test: Maximal Electroshock (MES) seizure test, mice, i.p.; format: in vivo; details: 1 mg/kg
Procedure: This toxicity profile is generally not observed in humans. Thus, a higher relative dose of a huperzine compound is tolerated in humans compared to rodents.
(§1) Seizure testing was carried out as follows.

rats [3] = test: Subcutaneous Metrazol (SCMET / scPTZ) seizure test, rats, oral; format: in vivo
Procedure: (§2) Peak anticonvulsant activity was observed one-hour after p.o. administration of 1 mg/kg.

rats [4] = test: Toxicity (TOX) / minimal motor impairment, rats; format: in vivo; details: for Behavioral motor impairment, animals affected: rat, in vivo, po
Procedure: as §2

patients = details: human, in vivo; cited from earlier work
[5] = format: physicochemical
mice [6] = test: Subcutaneous Metrazol (SCMET / scPTZ) seizure test, mice, i.p.; format: in vivo
Procedure: as §1

mice [7] = test: Toxicity model (TOX), rotorod, mice; format: in vivo; details: for TOX observation code: i.p.; for TOX N/F (mice showing an effect / mice tested): mouse, in vivo, ip
Swiss Webster NIH mice = test: Formalin test for antinociceptive activity (paw licking/biting); format: in vivo; details: 1 mg/kg i.p.
Procedure: The formalin test for antinociceptive activity is described in numerous publications, e.g., Hunskaar, S., O. B. Fasmer, and K. Hole, J. Neurosci. […] The formalin test is accepted as an art recognized model of persistent clinical pain.
Male Swiss Webster NIH mice (20-30 g; Harlan, San Diego, Calif.) were used in the experiments described herein. Food was withdrawn on the day of experiment. Mice were placed in Plexiglass jars for at least 1 hour to accommodate to the environment. Following the accommodation period, mice were weighed and given either a huperzine compound administered intraperitoneal (i.p.) or oral (p.o.), or the appropriate volume of vehicle (10% Tween-80). Fifteen minutes after the i.p. dosing, and 30 minutes after the p.o. dosing mice were injected with formalin (20 μL of 5% formaldehyde solution in saline) into the dorsal surface of the right hind paw. Mice were transferred to the Plexiglass jars and monitored for the amount of time spent licking or biting the injected paw. Periods of licking and biting were recorded in 5 minute intervals for 40 minutes after the formalin injection. […] The early phase (acute) of the formalin response is measured as licking/biting between 0-5 minutes, and the late phase (inflammatory) is measured from 10-40 minutes. Differences between vehicle and drug treated groups are analyzed by one-way analysis of variance (ANOVA). […]

mice [8] = format: in vivo; details: for N/F, Time to Peak Effect: IP, 32 mA, 0.83 mg/kg; for COMMENT (observed effects): ip
Procedure: as §1

Nc1nnc(-c2cccc(Cl)c2Cl)c(N)n1 [lamotrigine]
Efficacy in the 6 Hz psychomotor seizure model (mice [1]): limited efficacy

CC1(C)O[C@@H]2[C@@H](CO[C@@]3(COS(N)(=O)=O)OC(C)(C)O[C@@H]23)O1 [topiramate]
Efficacy in the 6 Hz psychomotor seizure model (mice [1]): limited efficacy

C/C=C1\[C@H]2C=C(C)C[C@]1(N)c1ccc(=O)[nH]c1C2 [Huperzine A]
Protection in the mouse MES test (FIG. 1) (mice [2]): time-dependent protection
Time of peak anticonvulsant activity (rats [3]; after p.o. administration of 1 mg/kg): one-hour
Time of peak activity post administration (rats [3]; oral, 1 mg/kg, rat MES and SCMET time course): between 30 minutes and two hours
Toxicity (rats [4]; oral, 1 mg/kg, any of the animals): no toxicity
Behavioral motor impairment, animals affected (rats [4]; 2 mg/kg): 75%
Behavioral motor impairment, animals affected (rats [4]; 4 mg/kg): 100%
Adverse effects in patients (patients): adverse effects were noted infrequently
Solubility in the methyl cellulose solvent [5]: not soluble
SCMET N/F (mice showing an effect / mice tested) (mice [6]; 1 mg/kg SOL, 0.5 h): 3/5
SCMET N/F (mice showing an effect / mice tested) (mice [6]; 3 mg/kg SUS, 0.5 h): 1/1
SCMET N/F (mice showing an effect / mice tested) (mice [6]; 10 mg/kg SUS, 4.0 h): 1/1
TOX observation code (mice [7]; 1 mg/kg SOL, 0.5 h): 4/4 (T)^2
TOX observation code (mice [7]; 1 mg/kg SOL, 4.0 h): 2/2 (T)
TOX observation code (mice [7]; 3 mg/kg SUS, 4.0 h): 4/4 (T)
TOX observation code (mice [7]; 10 mg/kg SUS, 4.0 h): 2/2 (T)
TOX observation code (mice [7]; 30 mg/kg SUS, 0.5 h): 4/4 (D)^3
TOX observation code (mice [7]; 100 mg/kg SUS, 0.5 h): 8/8 (D)
TOX observation code (mice [7]; 300 mg/kg SUS, 0.5 h): 4/4 (D)
TD50 (mice [7]; mice): 0.83 mg/kg
TOX N/F (mice showing an effect / mice tested) (mice [7]; 0.1 mg/kg, 4 h): 0/4
TOX N/F (mice showing an effect / mice tested) (mice [7]; 0.3 mg/kg, 4 h): 0/4
TOX N/F (mice showing an effect / mice tested) (mice [7]; 1 mg/kg, 0.5 h): 4/4 (T)^2
TOX N/F (mice showing an effect / mice tested) (mice [7]; 1 mg/kg, 4 h): 2/2 (T)
TOX N/F (mice showing an effect / mice tested) (mice [7]; 3 mg/kg, 0.5 h): 8/8
TOX N/F (mice showing an effect / mice tested) (mice [7]; 3 mg/kg, 4 h): 4/4 (T)
TOX N/F (mice showing an effect / mice tested) (mice [7]; 10 mg/kg, 0.5 h): 4/4
TOX N/F (mice showing an effect / mice tested) (mice [7]; 10 mg/kg, 4 h): 2/2 (T)
TOX N/F (mice showing an effect / mice tested) (mice [7]; 30 mg/kg, 0.5 h): 4/4 (D)^3
TOX N/F (mice showing an effect / mice tested) (mice [7]; 100 mg/kg, 0.5 h): 8/8 (D)
TOX N/F (mice showing an effect / mice tested) (mice [7]; 300 mg/kg, 0.5 h): 4/4 (D)
Inhibition of phase 1 (acute) pain response (Swiss Webster NIH mice): complete inhibition
Inhibition of phase 2 (inflammatory) pain response (Swiss Webster NIH mice): complete inhibition
Protection in the mouse 6 Hz test (FIG. 1) (mice [8]; 0.8 mg/kg): time-dependent protection
N/F, Time to Peak Effect (mice [8]; 0.25 h): 1/4
N/F, Time to Peak Effect (mice [8]; 0.5 h): 1/4
N/F, Time to Peak Effect (mice [8]; 1.0 h): 4/4
N/F, Time to Peak Effect (mice [8]; 2.0 h): 2/4
N/F, Time to Peak Effect (mice [8]; 4.0 h): 0/4
Protection against 6 Hz seizures (FIG. 2) (mice [8]; mouse, in vivo): dose-dependent protection
COMMENT (observed effects) (mice [8]; mouse, in vivo, 0.18 mg/kg): Minimal motor impairment
COMMENT (observed effects) (mice [8]; mouse, in vivo, 0.2 mg/kg): Tremors
COMMENT (observed effects) (mice [8]; mouse, in vivo, 0.35 mg/kg): Minimal motor impairment

O=C1NC(=O)C(c2ccccc2)(c2ccccc2)N1 [phenyloin]
Efficacy in the 6 Hz psychomotor seizure model (mice [1]): limited efficacy

NC(=O)N1c2ccccc2C=Cc2ccccc21 [carbamazepine]
Efficacy in the 6 Hz psychomotor seizure model (mice [1]): limited efficacy
